# According to PMC11200976, “Pitavastatin Calcium Confers Fungicidal Properties to Fluconazole by Inhibiting Ubiquinone Biosynthesis and Generating Reactive Oxygen Species” (Antioxidants, 2024):
# Structures can show the parent of a compound that is named as a salt. Where two headings read alike, the source gives them in different places.
# Assays:
# [1] = test system: C. albicans SC5314, SN152, cmp1-aid∆/cmp1-aid∆, and PADH1-UPC2 strains; assay: FLC disk diffusion assays (25 μg FLC disk, 5 μM adjuvant); type: cell-based, Candida albicans; conditions: for effect on FLC tolerance in FLC disk diffusion, all four strains: SC5314, SN152, cmp1-aid∆/cmp1-aid∆; for synergistic lethal effects with FLC compared to GdA and CsA (disk diffusion): Figure S3
# Procedure: Yeast cells were cultured overnight at a temperature of 30 °C, and the resulting cell suspension was diluted to a concentration of 1 × 10^7 cells/mL in phosphate-buffered saline (PBS). At a concentration of 5 μM, the drugs were individually added to YPD plates for disk assays using a 25 μg FLC disk (6 mm, Liofilchem, Roseto degli Abruzzi, Italy). The plates were then incubated at 30 °C for 48 h. Subsequently, the disk was transferred to a drug-free YPD plate, which was incubated at 30 °C for 24 h and photographed.
# [2] = Acute toxicity, Up-and-Down procedure (OECD 425), intraperitoneal; type: in vivo; conditions: C57BL/6, mouse, in vivo, ip, mice
# Procedure: (§1) Following a previously described methodology, the intraperitoneal route was employed in adult mice. In brief, the primary test involved a sequential administration of doses at intervals of at least 48 h, with one mouse being dosed at a time. Initially, a dose below LD50 was administered intraperitoneally to a mouse. If the mouse survived, the subsequent mouse would receive 1.3 times the initial dose. Conversely, if the mouse died, the subsequent mouse would receive a dose decreased by 1.3 times the initial dose. Each mouse was monitored for 48 h before determining the subsequent mouse’s dosage and administration. The experiment was terminated upon five “survive or die” reversals within a consecutive set of six animals tested. Subsequently, the LD50 and its corresponding confidence interval were computed based on the conditions observed in all mice after the experiment.
# C. albicans [3] = assay: Broth microdilution assay of synergistic lethality with 4 μg/mL FLC (recovery on drug-free YPD); type: cell-based, Candida albicans; conditions: for synergistic lethal concentration (converts FLC from fungistatic to fungicidal): with 4 μg/mL FLC, tested 100 μM to 0.1953 μM, 30 °C, 48 h
# C. albicans [4] = assay: Dose–matrix titration assays (synergy, with YPD recovery plates); type: cell-based, Candida albicans; conditions: for effect of azole combined with PIT: Figure 5B
# Procedure: The synergistic effects of drugs were conducted following the same procedure as the MIC assays. Specifically, 50 μL of drug A was distributed through two-fold serial dilution across seven plate columns. Subsequently, 50 μL of drug B was distributed in a two-fold serial dilution manner along seven rows of the plate. Furthermore, 100 μL of C. albicans cultures, adjusted to a density of 1 × 10^3 cells/mL, was dispensed into wells containing drugs and one control well devoid of any drugs. Before the 48 h OD600 readings, the plates were subjected to meticulous agitation to ensure the deposition of a representative 2 μL aliquot from each well onto newly prepared YPD recovery plates, thereby facilitating the evaluation of cellular recuperation following drug treatments. The recovery plates were subsequently incubated at a temperature of 30 °C for a duration ranging from 24 to 48 h, after which they were photographed. The experimental procedures were conducted in triplicate to ensure reliability and reproducibility.
# mice = assay: Acute toxicity, Up-and-Down procedure (OECD 425), intraperitoneal; type: in vivo
# Procedure: as §1
# [5] = concentration of the compound that is synergistically lethal with 4 μg/mL FLC, C. albicans, recovery on drug-free YPD
molecule,measurement,setting,value
"COC1=C2C[C@@H](C)C[C@H](OC)[C@H](O)[C@@H](C)/C=C(\C)[C@H](OC(N)=O)[C@@H](OC)/C=C\C=C(/C)C(=O)NC(=CC1=O)C2=O [GdA, geldanamycin]","effect on FLC tolerance in FLC disk diffusion, all four strains",[1]; PADH1-UPC2,effectively eradicated the zones of FLC inhibition
same,LD50 at 48 h,[2],19 mg/kg
CO[C@H]1C[C@H](O[C@@H]2/C(C)=C/C[C@@H]3C[C@@H](C[C@]4(CC[C@H](C)[C@@H](C5CCCCC5)O4)O3)OC(=O)[C@@H]3C=C(C)/C(=N/O)[C@H]4OC/C(=C\C=C\[C@@H]2C)[C@]43O)O[C@@H](C)[C@@H]1O [Selamectin],Synergistic lethal concentrations,C. albicans [3],12.5 µM
O=C1NCCN1CCN1CCC(c2cn(-c3ccc(F)cc3)c3ccc(Cl)cc23)CC1 [Sertindole],Synergistic lethal concentrations,C. albicans [3]; [5],25 µM
CN[C@H]1CC[C@@H](c2ccc(Cl)c(Cl)c2)c2ccccc21.Cl [Sertraline (hydrochloride)],Synergistic lethal concentrations,C. albicans [3]; [5],25 µM
O=C(O)CCC(=O)O.O=C(O[C@H]1CN2CCC1CC2)N1CCc2ccccc2[C@@H]1c1ccccc1 [Solifenacin (Succinate)],Synergistic lethal concentrations,C. albicans [3]; [5],100 µM
CCOc1ccc(Cc2cc([C@@H]3O[C@H](SC)[C@@H](O)[C@H](O)[C@H]3O)ccc2Cl)cc1 [Sotagliflozin],Synergistic lethal concentrations,C. albicans [3]; [5],100 µM
CC(C)(C)C(O)/C=C/c1ccc2c(c1)OCO2 (stereo not shown) [Stiripentol],Synergistic lethal concentrations,C. albicans [3]; [5],100 µM
COc1cc(C)c2c(Oc3cccc(C(F)(F)F)c3)c(OC)cc(NC(C)CCCN)c2n1.O=C(O)CCC(=O)O (stereo not shown) [Tafenoquine (Succinate)],Synergistic lethal concentrations,C. albicans [3]; [5],25 µM
Cn1ncnc1[C@H]1c2n[nH]c(=O)c3cc(F)cc(c23)N[C@@H]1c1ccc(F)cc1 [Talazoparib tosylate],Synergistic lethal concentrations,C. albicans [3]; [5],100 µM
CCCCCNC(=N)N/N=C/c1c[nH]c2ccc(OC)cc12.O=C(O)/C=C\C(=O)O [Tegaserod (maleate)],Synergistic lethal concentrations,C. albicans [3]; [5],6.25 µM
CN(C/C=C/C#CC(C)(C)C)Cc1cccc2ccccc12 [Terbinafine],Synergistic lethal concentrations,C. albicans [3]; [5],6.25 µM
CC(C)(CO)c1cc2cc(NC(=O)C3(c4ccc5c(c4)OC(F)(F)O5)CC3)c(F)cc2n1C[C@@H](O)CO [Tezacaftor],Synergistic lethal concentrations,C. albicans [3]; [5],100 µM
CSc1ccc2c(c1)N(CCC1CCCCN1C)c1ccccc1S2.Cl (stereo not shown) [Thioridazine (hydrochloride)],Synergistic lethal concentrations,C. albicans [3]; [5],100 µM
CCCCCCCCCCCCCCCC[N+](C)(C)CCN(Cc1ccc(OC)cc1)c1ncccn1.[Br-] [Thonzonium (bromide)],Synergistic lethal concentrations,C. albicans [3]; [5],100 µM
O=C(O)Cc1cc(I)c(Oc2ccc(O)c(I)c2)c(I)c1 [Tiratricol],Synergistic lethal concentrations,C. albicans [3]; [5],100 µM
Cc1ccc(O)c([C@H](CCN(C(C)C)C(C)C)c2ccccc2)c1 [Tolterodine],Synergistic lethal concentrations,C. albicans [3]; [5],100 µM
CC(C)OC(=O)CCC/C=C\C[C@@H]1[C@@H](/C=C/[C@@H](O)COc2cccc(C(F)(F)F)c2)[C@H](O)C[C@@H]1O [Travoprost],Synergistic lethal concentrations,C. albicans [3]; [5],100 µM
Cl.OC(CCN1CCCCC1)(c1ccccc1)C1CCCCC1 (stereo not shown) [Trihexyphenidyl (hydrochloride)],Synergistic lethal concentrations,C. albicans [3]; [5],100 µM
Cc1onc(-c2ccccc2)c1-c1ccc(S(N)(=O)=O)cc1 [Valdecoxib],Synergistic lethal concentrations,C. albicans [3]; [5],100 µM
O=C(O)C(c1ccccc1)(c1ccccc1)c1ccccc1.OCc1cc([C@@H](O)CNCCCCCCOCCOCc2c(Cl)cccc2Cl)ccc1O [Vilanterol (trifenatate],Synergistic lethal concentrations,C. albicans [3]; [5],100 µM
CC1=C(C)C(=O)C(CCCCCCCCCC[P+](c2ccccc2)(c2ccccc2)c2ccccc2)=CC1=O.[Br-] [Visomitin],Synergistic lethal concentrations,C. albicans [3]; [5],50 µM
C=C/C=C/C[C@@H](C)[C@@H](O)[C@H]1C(=O)N[C@@H](CC)C(=O)N(C)CC(=O)N(C)[C@@H](CC(C)C)C(=O)N[C@@H](C(C)C)C(=O)N(C)[C@@H](CC(C)C)C(=O)N[C@@H](C)C(=O)N[C@H](C)C(=O)N(C)[C@@H](CC(C)C)C(=O)N(C)[C@@H](CC(C)C)C(=O)N(C)[C@@H](C(C)C)C(=O)N1C [Voclosporin],Synergistic lethal concentrations,C. albicans [3]; [5],0.1953 µM
Br.Cc1ccc(Sc2ccccc2N2CCNCC2)c(C)c1 [Vortioxetine (hydrobromide)],Synergistic lethal concentrations,C. albicans [3]; [5],100 µM
CC(C)n1nccc1-c1ncccc1COc1cccc(O)c1C=O [Voxelotor],Synergistic lethal concentrations,C. albicans [3]; [5],100 µM
COCc1c(C(C)C)nc(C(C)C)c(/C=C/[C@@H](O)C[C@@H](O)CC(=O)O)c1-c1ccc(F)cc1 [cerivastatin sodium],"effect on FLC tolerance in FLC disk diffusion, all four strains",[1]; PADH1-UPC2,made FLC fungicidal
same,synergistic lethal concentration (converts FLC from fungistatic to fungicidal),C. albicans [3],≤ 6.25 µM
same,concentration that renders FLC fungicidal (no recovery on YPD solid medium),"C. albicans [4]; FLC ≤4 μg/mL, YPD, 30 °C, 48 h",≤ 3.125 µM
N=C(NCCCCCCNC(=N)NC(=N)Nc1ccc(Cl)cc1)NC(=N)Nc1ccc(Cl)cc1.O=C(O)[C@H](O)[C@@H](O)[C@H](O)[C@H](O)CO.O=C(O)[C@H](O)[C@@H](O)[C@H](O)[C@H](O)CO [chlorhexidine digluconate],"effect on FLC tolerance in FLC disk diffusion, PADH1-UPC2 strain",[1]; PADH1-UPC2,unsuccessful in reducing FLC tolerance
same,concentration that renders FLC fungicidal (no recovery on YPD solid medium),"C. albicans [4]; FLC ≤4 μg/mL, YPD, 30 °C, 48 h",≤ 3.125 µM
C[C@@H]1CC[C@@]2(OC1)O[C@H]1C[C@H]3[C@@H]4CC=C5C[C@@H](O[C@@H]6O[C@H](CO)[C@@H](O[C@@H]7O[C@@H](C)[C@H](O)[C@@H](O)[C@H]7O)[C@H](O)[C@H]6O[C@@H]6O[C@@H](C)[C@H](O)[C@@H](O)[C@H]6O)CC[C@]5(C)[C@H]4CC[C@]3(C)[C@H]1[C@@H]2C [dioscin],synergistic lethal effects with FLC compared to GdA and CsA (disk diffusion),[1],weaker synergistic lethal effects
same,Synergistic lethal concentrations,C. albicans [3]; [5],6.25 µM
same,LD50 at 48 h,[2],32 mg/kg
same,concentration that renders FLC fungicidal (no recovery on YPD solid medium),"C. albicans [4]; FLC ≤4 μg/mL, YPD, 30 °C, 48 h",≤ 3.125 µM
CCCCCCCCCCCC[N+](C)(C)CCOc1ccccc1 [domiphen bromide],synergistic lethal effects with FLC compared to GdA and CsA (disk diffusion),[1],weaker synergistic lethal effects
same,concentration that renders FLC fungicidal (no recovery on YPD solid medium),"C. albicans [4]; FLC ≤4 μg/mL, YPD, 30 °C, 48 h",≤ 3.125 µM
"CC(C)n1c(/C=C/C(O)CC(O)CC(=O)O)c(-c2ccc(F)cc2)c2ccccc21 (stereo not shown) [fluvastatin sodium, reference compound]",synergistic lethal concentration (converts FLC from fungistatic to fungicidal),C. albicans [3],≤ 6.25 µM
CCC(C)n1ncn(-c2ccc(N3CCN(c4ccc(OCC5COC(Cn6cncn6)(c6ccc(Cl)cc6Cl)O5)cc4)CC3)cc2)c1=O (stereo not shown) [itraconazole],effect of azole combined with PIT,C. albicans [4],synergistic lethal effects
CC(=O)N1CCN(c2ccc(OCC3COC(Cn4ccnc4)(c4ccc(Cl)cc4Cl)O3)cc2)CC1 (stereo not shown) [ketoconazole],effect of azole combined with PIT,C. albicans [4],synergistic lethal effects
Clc1ccc(COC(Cn2ccnc2)c2ccc(Cl)cc2Cl)c(Cl)c1 (stereo not shown) [miconazole],effect of azole combined with PIT,C. albicans [4],synergistic lethal effects
CCCCCCCCN=c1ccn(CCCCCCCCCCn2ccc(=NCCCCCCCC)cc2)cc1 [octenidine dihydrochloride],synergistic lethal effects with FLC compared to GdA and CsA (disk diffusion),[1],weaker synergistic lethal effects
same,concentration that renders FLC fungicidal (no recovery on YPD solid medium),"C. albicans [4]; FLC ≤4 μg/mL, YPD, 30 °C, 48 h",≤ 3.125 µM
CC[C@@H]1/C=C(\C)C[C@H](C)C[C@H](OC)[C@H]2O[C@@](O)(C(=O)C(=O)N3CCCC[C@H]3C(=O)O[C@H](/C(C)=C/[C@@H]3CC[C@H](Cl)[C@H](OC)C3)[C@H](C)[C@@H](O)CC1=O)[C@H](C)C[C@@H]2OC [pimecrolimus],"effect on FLC tolerance in FLC disk diffusion, all four strains",[1]; PADH1-UPC2,made FLC fungicidal
same,Synergistic lethal concentrations,C. albicans [3]; [5],0.1953 µM
same,LD50 at 48 h,[2],42 mg/kg
same,concentration that renders FLC fungicidal (no recovery on YPD solid medium),"C. albicans [4]; FLC ≤4 μg/mL, YPD, 30 °C, 48 h",≤ 3.125 µM
Oc1cc(Cl)ccc1Oc1ccc(Cl)cc1Cl [triclosan],"effect on FLC tolerance in FLC disk diffusion, all four strains",[1]; PADH1-UPC2,made FLC fungicidal
same,Synergistic lethal concentrations,C. albicans [3]; [5],0.3906 µM
same,LD50 at 48 h,[2],62.6 mg/kg
same,concentration that renders FLC fungicidal (no recovery on YPD solid medium),"C. albicans [4]; FLC ≤4 μg/mL, YPD, 30 °C, 48 h",≤ 3.125 µM
C[C@@H](c1ncncc1F)[C@](O)(Cn1cncn1)c1ccc(F)cc1F [voriconazole],effect of azole combined with PIT,C. albicans [4],synergistic lethal effects
Cc1ccc(Sc2ccccc2N2CCNCC2)c(C)c1 [vortioxetine],"effect on FLC tolerance in FLC disk diffusion, all four strains",[1]; PADH1-UPC2,made FLC fungicidal
same,Synergistic lethal concentrations,C. albicans [3]; [5],6.25 µM
same,LD50 at 48 h,[2],48.3 mg/kg
same,concentration that renders FLC fungicidal (no recovery on YPD solid medium),"C. albicans [4]; FLC ≤4 μg/mL, YPD, 30 °C, 48 h",≤ 3.125 µM
bleomycin sulfate,"effect on FLC tolerance in FLC disk diffusion, cmp1-aid∆/cmp1-aid∆ strain",[1]; cmp1-aid∆/cmp1-aid∆,failed to clear the zone of FLC inhibition
same,LD50,mice,21.57 mg/kg
same,concentration that renders FLC fungicidal (no recovery on YPD solid medium),C. albicans [4],≤ 3.125 µM
ivermectin,synergistic lethal effects with FLC compared to GdA and CsA (disk diffusion),[1],weaker synergistic lethal effects
same,Synergistic lethal concentrations,C. albicans [3]; [5],3.125 µM
same,concentration that renders FLC fungicidal (no recovery on YPD solid medium),"C. albicans [4]; FLC ≤4 μg/mL, YPD, 30 °C, 48 h",≤ 3.125 µM
